# Data taken from PubChem BioAssay AID1996.
# Details: buffer; pH 7.4; 200.0 µM
row,SMILES,solubility kinetic [µg/mL]
1,Cc1cc(C)n2nc(C(=O)OCC(=O)NCc3ccc(F)cc3)nc2n1,> 53.6
2,Cc1cc(C)cc(C(=O)OCC(=O)NC(=O)NC2CCCC2)c1,4.1
3,COC(=O)c1cn(CC(=O)Nc2ccc(OC)cc2)c2ccccc12,< 0.4
4,Cc1ccc(C(=O)NCC(C)NC(=O)c2ccc(C)c([N+](=O)[O-])c2)cc1[N+](=O)[O-] (stereo not drawn),1.8
5,O=C(O)/C=C/C(=O)Nc1ccc(-n2nccc2C(F)(F)F)cc1,> 48.8
6,O=c1c2ccccc2nc(-c2ccccc2Cl)n1-c1cccc(O)c1,> 52.3
7,O=C(Nc1ccccc1Cl)c1cccc(NC(=O)C2CCCC2)c1,26.9
8,CC(=O)N1Cc2[nH]c3ccccc3c2CC1C(=O)O (stereo not drawn),> 38.7
9,O=C(NCCc1ccc([N+](=O)[O-])cc1)c1ccccc1,14.2
10,CC(=O)c1c(C)[nH]c(C(=O)Nc2cccc(C(F)(F)F)c2)c1C,2
11,Cc1cc(C)nc(SCC(=O)c2ccc(Cl)cc2)n1,33.5
12,Cc1nc(Nc2ccc(Cl)cc2)c2oc3ccccc3c2n1,< 0.2
13,c1cncc(-c2nc(-c3ccc4c(c3)OCCO4)cs2)c1,4.6
14,C=C(C)CN(CC)c1ccc(N2C(=O)CCCC2=O)cc1[N+](=O)[O-],17.8
15,CCOC(=O)CNC(=O)c1ccc(SCC)cc1,> 40.1
16,N#CC(C#N)=Cc1ccc(OCC(=O)N2CCOCC2)cc1,> 44.6
17,COc1ccc(OCC(=O)Nc2ccc3c(c2)OCO3)cc1,42.3
18,Cc1cc(C(=O)N2CCN(Cc3ccccc3)CC2)ccc1[N+](=O)[O-],> 50.9
19,CC(C)CCN1CCN(Cc2ccc(C(F)(F)F)cc2)CC1CCO (stereo not drawn),> 53.8
20,COc1ccc(OC(=O)C(C)N2C(=O)c3ccccc3C2=O)cc1 (stereo not drawn),33.3
21,Cc1ccc(CCC(=O)Nc2ccc(C#N)cc2)o1,37
22,CCN(C(=O)CSc1nc(C)nc2sc3c(c12)CCC3)C1CCS(=O)(=O)C1 (stereo not drawn),5.4
23,FC(F)(F)c1cccc(NC(=S)Nc2ccc(Cl)c(Cl)c2)c1,1.5
24,COc1ccc(NC(=O)CC(Cc2ccc(Cl)cc2)C(=O)O)cc1 (stereo not drawn),> 52.2

row,SMILES,solubility kinetic [µg/mL]
1,CC#CC[N+](C)(CC#CC)CC(=O)c1ccccc1.[Br-],30
2,CCOc1ccc(NC(=O)C2CC3CCC2C3)cc1 (stereo not drawn),6.1
3,COc1ccc(NC(=O)C2CC(c3ccccc3Cl)=NO2)cc1 (stereo not drawn),37.6
4,COc1ccccc1NC(=O)CN1CCSc2ccccc21,3.1
5,COc1ccc(NC(=O)COC(=O)CC2CCCC2)cc1,> 43.7
6,COc1ccc(C(=O)CSc2nc3ncccc3[nH]2)cc1OC,13.4
7,COCCNC(=S)NCc1cccs1,31.9
8,O=[N+]([O-])c1cccc(CN2CCCCCC2)c1,31.7
9,Cc1cc(NC(=O)CSc2nc3c(cc2C#N)CCC3)no1,1.4
10,O=C(NCCCN1CCCC1=O)C1CCCO1 (stereo not drawn),35.2
11,CC1CCCCN1C(=O)Cn1cnc2cc([N+](=O)[O-])ccc2c1=O (stereo not drawn),> 49.6
12,CC1CCCC(C)N1C(=O)CSc1nc2ccccc2c(=O)[nH]1 (stereo not drawn),27.6
13,O=C1/C(=C\c2cccc(O)c2)SC(=S)N1Cc1ccccc1,< 0.7
14,Cn1cnnc1SCC(=O)NC1CC1,> 31.8
15,Cn1c(O)c(C=Nc2ccc(Br)cc2)c(=O)n(C)c1=O,1.2
16,C=CCN(CC=C)C(=S)Nc1ccc(OC)c(OC)c1,> 43.9
17,COc1ccc(C(=O)OCC(=O)NCc2cccs2)c(OC)c1OC,> 54.8
18,Clc1ccc(SCCCN2CCCCC2)cc1.O=C(O)C(=O)O,> 54
19,Cc1cccc(C(=O)Nc2ccc(Oc3cnccn3)cc2)c1,5.6
20,Cc1cc2oc(=O)cc(CN3CCCCC3C)c2cc1C (stereo not drawn),17.9
21,Cc1cc(OCc2cccc(Cl)c2)c(C)cc1CN1CCOCC1,1
22,Cc1cc(NC(=O)c2ccc3[nH]c(C)c(C)c3c2)ccn1,37.6
23,CN(C)/C=C/C(=O)c1ccc2noc(-c3ccccc3)c2c1,15.1
24,O=[N+]([O-])c1ccc(Cl)c([N+](=O)[O-])c1,13.8

row,SMILES,solubility kinetic [µg/mL]
1,C=C(C)c1cccc(C(C)(C)NC(=O)Nc2nncs2)c1,> 45.4
2,COc1cc(CN2CCCCCC2)cc(OC)c1,30.6
3,CCC1(CC)NC(=O)N(CC(=O)Nc2ccc(OCc3ccccc3)cc2)C1=O,8.9
4,CN(C)CCOC(=O)c1ccc2[nH]c3c(c2c1)CSCC3.Cl,49.2
5,CCCCNS(=O)(=O)c1cc2c3c(c1)CCN3C(=O)CC2,44.3
6,COc1ccc(NC(=O)c2cc(C)n(Cc3cccs3)c2C)cc1,1.3
7,CC1(C)CC(=O)C2=C(C1)Nc1ccccc1[S@]2=O,> 39.2
8,COc1ccc(NS(=O)(=O)c2ccc(C(=O)N3CCN(c4ccc(F)cc4)CC3)cc2)cc1,12.1
9,O=C1Nc2ccccc2C1Cc1ccccn1 (stereo not drawn),> 33.6
10,Cc1cnc(NC(=O)C2CC(=O)N(c3ccc4c(c3)OCCO4)C2)s1 (stereo not drawn),20.2
11,CCOc1ccc(Nc2nc(NCc3ccco3)nc(N)c2[N+](=O)[O-])cc1,< 0.1
12,O=c1c(/C=N/O)coc2ccc(Cl)cc12,8.2
13,O=C(NC1CCSc2ccccc21)c1cccc(Cl)c1 (stereo not drawn),2.1
14,N#Cc1ccccc1OCC(=O)OCC(=O)c1ccc[nH]1,24.9
15,CCOc1ccc(S(=O)(=O)Nc2ccc(OC)nc2)cc1,> 46.3
16,O=c1[nH]c(CSc2cccc[n+]2[O-])nc2ccccc12,> 42.8
17,Cc1cccnc1NC(=O)CCn1c(=O)oc2ccccc21,> 44.6
18,COc1cccc(C(=O)N2CCC(C(=O)N3CCN(C)CC3)CC2)c1,> 51.8
19,CC(=O)c1ccc(S(=O)(=O)N(C)C(C)CCc2ccco2)cc1 (stereo not drawn),31.8
20,O=C1Cc2cc(S(=O)(=O)NCc3ccc(F)cc3)ccc2N1,16.7
21,C=CCNC(=O)COC(=O)c1cccnc1Nc1ccccc1F,17.9
22,Cc1ccc(S(=O)(=O)c2c[nH]c3ccc(Cl)cc3c2=O)cc1,< 0.7
23,O=C(CN1CCN(c2ccccc2)CC1)Nc1scc2c1c(=O)oc1ccccc12,< 0.3
24,O=C(COC(=O)c1ccccc1)NC(=O)NC1CCCC1,23.8

row,SMILES,solubility kinetic [µg/mL]
1,CC(=O)c1ccc(NC(=O)C(C)OC(=O)/C=C/c2ccco2)cc1 (stereo not drawn),21.7
2,CC(=O)N1CCOCCOCCOCC1,> 32.6
3,Cc1nc2ccccc2n1CCOc1ccc(F)cc1,40.1
4,CC(=O)c1cccc(NC(=O)C2CC(=O)N(C3CCCC3)C2)c1 (stereo not drawn),> 47.2
5,COC(=O)c1[nH]c2ccccc2c1CN1CCOCC1,> 41.1
6,CC1CCc2c(sc(NC(=O)COC(=O)C3CCCO3)c2C#N)C1 (stereo not drawn),34.2
7,COc1ccc(CCC(C)NC2CCCCCCC2)cc1 (stereo not drawn),41.8
8,O=C(CC(Nc1ccccc1)c1ccccc1)C1CC1 (stereo not drawn),< 0.6
9,O=C(c1ccc2ccccc2n1)N1CCN(c2ccccn2)CC1,> 47.8
10,Cc1ccc(NS(=O)(=O)c2ccc(Cl)nc2)c(C)c1,> 44.5
11,COc1ccc(OC)c(S(=O)(=O)NC2CCCCNC2=O)c1 (stereo not drawn),> 49.3
12,Cn1cc(CCCC(=O)NCc2ccccc2)c2ccccc21,29.2
13,COCCNC(=O)c1cc2sccc2n1C,> 35.7
14,COc1ccc(C2=CSC3=NCCN23)cc1Cl,38.4
15,Cc1cc2c3c(c1)C(C)CC(C)(C)N3C(=O)C2=C(C#N)C#N (stereo not drawn),0.6
16,O=S(=O)(Nc1ccccc1N1CCCCC1)c1ccccc1,4.4
17,CC(=O)C(C)n1cnc2scc(-c3ccc(C)cc3)c2c1=O (stereo not drawn),44.6
18,Cc1cc(Oc2ncccc2[N+](=O)[O-])c2cc(Cl)ccc2n1,< 0.2
19,COc1ccc2c(c1)[C@@]13CCC=C[C@H]1[C@@H](C2)NCC3.Cl,> 43.8
20,Cc1cc(NCC2CCCCC2)nc2ccccc12,21.4
21,O=C1c2ccccc2C(=O)N1Cc1cc(Cl)c(O)c([N+](=O)[O-])c1,> 49.9
22,C=CCNC(=O)c1cnc(-c2ccccc2)nc1-c1ccccc1,0.7
23,COC(=O)C(NC(C)=O)(Nc1cccc(C)n1)C(F)(F)F (stereo not drawn),> 45.8
24,COCC(C)NC(=O)C1c2ccccc2Oc2ccccc21 (stereo not drawn),40.1

row,SMILES,solubility kinetic [µg/mL]
1,COC(=O)/C(C#N)=C/N(C)C,> 23.1
2,CC(NC(=O)c1cc(F)c(F)cc1Cl)C1CC2CCC1C2 (stereo not drawn),5.6
3,Oc1c(Cl)cc(Cl)cc1CNc1nc2ccccc2[nH]1,3.5
4,CN1C(=O)c2ccc(NC(=O)c3c(C(=O)O)cccc3[N+](=O)[O-])cc2C1=O,> 55.4
5,O=C(COc1ccc2ccc(=O)oc2c1)NC1CCS(=O)(=O)C1 (stereo not drawn),> 50.6
6,O=S(=O)(NCC1CC1)c1ccc(F)c(Cl)c1,> 39.6
7,Cc1ccc(-c2csc(NC(=O)c3cnccn3)n2)cc1C,< 0.2
8,Cl.NCCCCCc1nnc(SCC(N)=O)o1,> 42.1
9,CCCC(=O)OCCNc1cc(SCCC(=O)OC)c2nonc2c1[N+](=O)[O-],19.3
10,C=CCNC(=O)c1cc2sccc2n1C,> 33
11,Cc1ccnc(NC(=O)CNC(=O)c2ccco2)c1,> 38.9
12,Cc1nc2ccccn2c1C(=O)C(=O)Nc1cc(F)ccc1F,4
13,O=C(Cc1ccccc1F)Nc1ccccc1N1CCCC1,27.8
14,Cc1ccc(NC(=O)c2cc3ccccc3oc2=N)cc1,< 0.3
15,CCOC(=O)C1=C(c2ccccc2)NC(=S)NC1c1ccc(Cl)cc1 (stereo not drawn),5.3
16,Cc1c(C(=O)OCC(=O)N2CCN(c3ccccc3)CC2)oc2ccccc12,4.5
17,CCOC(=O)C1CCCCN1Cc1cn(C)nc1-c1ccccc1F (stereo not drawn),> 51.8
18,CCOc1ccccc1NC(=O)COC(=O)C1CCC(=O)N1 (stereo not drawn),> 45.9
19,CC(=O)c1ccc(N(CC(=O)NC2CCS(=O)(=O)C2)S(=O)(=O)c2ccc(C)cc2)cc1 (stereo not drawn),10.4
20,CC(NC(=O)CN(c1ccc(Br)cc1)S(C)(=O)=O)c1ccccc1 (stereo not drawn),> 61.7
21,COc1ccc(/C=C2\CCc3ccccc3C2=O)cc1CN1CCOCC1,23.9
22,Cc1cnc(C(=O)OCC(=O)Nc2cccc(S(=O)(=O)N3CCOCC3)c2)cn1,> 63.1
